# Assay results published in patent US20170296568A1, “SIRTUIN GENE POTENTIATOR, AND PHARMACEUTICAL PRODUCT, COSMETIC PRODUCT, AND FOOD PRODUCT USING SAME” (MORISHITA JINTAN CO., LTD., priority 2012, published 2017).
# Tests used:
# Type in all cases: cell-based, human
# [1] = test system: hSIRT1 promoter; test: Screening for SIRT1 enhancing polyphenol or terpenoid: hSIRT1 promoter activity (EGFP fluorescence) in Caco-2-hSIRT1p-EGFP cells; details: 10 μM, 2 days after addition, relative ratio to control (PBS), FIG. 1
# Excerpt: First, the promoter region (−1593 to −1 bp) of hSIRT1 (human SIRT1) was acquired using the LA-PCR method using, as a template, a human genome DNA extracted from TIG-1 cells (obtained from Institute of Development, Aging and Cancer, Tohoku University), with primers synthesized based on reported information of the hSIRT1 genomic sequence so as to synthesize primers having added AseI and NheI recognition sequences at their respective ends (hSIRT1p-AseI (SEQ ID NO: 1) and hSIRT1p-NheI (SEQ ID NO: 2)). The PCR reaction condition was at 94° C. for 1 minute, followed by at 98° C. for 20 seconds; and at 68° C. for 2 minutes, 34 cycles; and then at 72° C. for 10 minutes for extension reaction. LA-Taq from Takara Shuzo Co., Ltd. was used as the TaqDNApolymerase. The primers were synthesized by Nippon EGT based on our request.
# The hSIRT1 promoter fragment obtained by the LA-PCR was subjected to TA cloning using a pGEM-T Easy vector (manufactured by Promega KK). Furthermore, the base sequence thereof was confirmed by sequencing. The hSIRT1 promoter fragment, inserted into the pGEM-T Easy vector, was cut out by digestion with the restriction enzymes AseI and NheI, and the CMV promoter of a pEGFP-C3 (manufactured by Takara Bio Inc.) was removed by digestion with AseI and NheI in a similar manner, and the hSIRT1 promoter fragment was inserted into that removed site, so that phSIRT1p-EGFP was obtained.
# Transfection was performed using a LIPOFECT AMINE 2000 REAGENT (manufactured by Life Technologies) according to its protocol. On the day before the transfection, Caco-2 cells (human colonic cancer-derived cells obtained from Riken BioResource Center) were plated at 1.0×10^6 in a 10-mL dish. On the day of the transfection, phSIRT1p-EGFP (10 μg) was diluted in a serum-free OPTI-MEM medium to a volume of 750 μL, after which 15 μL of LIPOFECT AMINE Reagent was diluted in a serum-free OPTI-MEM medium to […], and they were incubated at room temperature for 5 minutes. The transfection using the LIPOFECT AMINE Reagent was performed in the absence of serum, during which the culture medium of the Caco-2 cells plated on the previous day was removed, and was replaced by 5 mL of serum-free OPTI-MEM medium. After 30 minutes of this, 1.5 mL of DNA-LIPOFECT AMINE 2000 mixture was added to each 10-mL dish. After the addition, the dish was gently shaken to mix the DNA-LIPOFECT AMINE and the OPTI-MEM. After the culture for 3 hours, the DNA-LIPOFECT AMINE mixture solution was removed, and the medium was replaced by a serum-containing culture medium. Subsequently, culture was performed under the environment at 5% CO2/95% air and 37° C. for 21 hours, and the culture medium was replaced by a new one.
# Since phSIRT1p-EGFP is resistant to the drug G418, the drug G418 was added to the transfected cells to 70 μg/mL to subject them to the drug selection for a week. The culture medium was replaced by a new one every three days, and G418 was added every time at the same concentration. Accordingly, Caco-2-hSIRT1p-EGFP cells were obtained.
# Caco-2-hSIRT1p-EGFP cells were plated at 0.6×10^4 cells/well in a 96-well plate. On the next day, 10 μM polyphenol or terpenoid, or control (PBS) was added to each well. At 2 days after the addition, the culture solution was aspirated, after which 100 μL of 4% paraformaldehyde was added to each well, and the plate was allowed to stand at room temperature for 10 minutes. After the plate was allowed to stand for 10 minutes, 4% paraformaldehyde was aspirated, 100 μL of Cellstain (registered trademark)-Hoechst 33342 solution (Dojindo) diluted 1/500 with PBS was added to each well, and the plate was allowed to stand at room temperature in the dark for 15 minutes and the solution was then aspirated. Then, 100 μL of PBS was added to each well, and the fluorescence intensity was measured using an IN Cell Analyzer 1000 (GE Healthcare, Amersham Place, UK). The promoter activity was represented by a relative ratio to the activity of the control.
# [2] = test system: hSIRT1 promoter; test: Enhancing the hSIRT1 promoter: EGFP fluorescence intensity in HaCaT-hSIRT1p-EGFP cells by flow cytometry; details: 10 μM in DMSO, 24 hours after addition, FIG. 4
# Experimental: HaCaT cells (human epidermis keratinocyte-derived cell lines, provided by Dr. Takumi Miura, National Center for Child Health and Development) were cultured using a Dalbecco's Modified Eagle Medium (DMEM) medium (Nissui Pharmaceutical Co., Ltd, Tokyo) supplemented with 10% FBS, 100,000 U/L penicillin (Meiji, Tokyo), 100 mg/L streptomycin (Meiji), and 2.0 g/L NaHCO3. These cells were subcultured at 37° C. in the presence of 5% CO2.
# HaCaT cell lines (HaCaT-hSIRT1p-EGFP cells) into which the vector (phSIRT1-EGFP) described in Reference Example 1 was integrated were prepared as below.
# The HaCaT cells were disseminated at 9.0×10^5 in a φ60-mm dish, and were cultured in 10% FBS supplemented DMEM medium. Cells as a control were prepared in a similar manner. After 24 hours, 8 μg of phSIRT1p-EGFP was added to and mixed with 300 μL of DMEM medium, 24 μL of Hilymax (manufactured by Dojindo Laboratories), which is a transfection reagent, was further added and mixed therewith, and the mixture was incubated for 15 minutes at room temperature. Subsequently, the total amount was added to the HaCaT cells. After 3 hours, the medium was replaced by 10% FBS supplemented DMEM medium.
# At 24 hours after the gene introduction, the medium was replaced by 10% FBS supplemented DMEM medium containing 750 μg/mL of G418 (Wako Pure Chemical Industries, Ltd.). After visually confirming under a microscope that all the control non-treated HaCaT cells were killed, the subculture was continued using 10% FBS supplemented DMEM containing 150 μg/mL of G418.
# It was confirmed with flow cytometry that the phSIRT1p-EGFP vector was reliably transferred inro the cells after the subculture. The above-described cells and the control non-treated HaCaT cells were plated at 7.0×10^5 per a φ60-mm dish, respectively. After 24 hours, the cells were picked up and well suspended in 2 mL of 5% FBS supplemented DMEM medium, and were filtered through a Nylon Mesh (Kyoshin Rikoh Inc., Japan), and the EGFP fluorescence intensity thereof was measured with a Flow Cytometer (EPICS, BeckmanCoulter). The analysis was performed using software FlowJo (Tree Star, Ashland Oreg.), so that the EGFP fluorescence intensity of each cell was represented as a histogram.
# HaCaT-hSIRT1p-EGFP cells were plated at 1.7×10^6 cells in a φ60-mm dish (as measured by flow cytometry) or at 2.0×10^4 cells/well in a 96-well plate (as measured by an IN Cell Analyzer 1000). After 24 hours, 10 μM of each polyphenol or terpenoid dissolved in DMSO (Wako Pure Chemical Industries, Ltd.) was added thereto. Note that as a negative control, the same amount of DMSO was added without polyphenol or terpenoid, and as a positive control, 10 μM resveratrol was added. At 24 hours after the addition of the various polyphenols or terpenoids or the controls, the fluorescence intensity was measured by flow cytometry.
# [3] = test system: sirtuin gene hSIRT1; test: Expression level of endogenous sirtuin gene hSIRT1 in Caco-2 cells (quantitative PCR, relative to β-actin); details: 10 μM, 2 days, qPCR normalised to β-actin, FIG. 2
# Experimental: Caco-2 cells were plated at 3.0×10^5 cells for a 5-mL dish. After 24 hours, each polyphenol was added to be 10 μM. Note that as a negative control, none of polyphenol nor terpenoid was added, and as a positive control, 10 μM resveratrol was added. At 2 days after this treatment, RNA was collected.
# The total RNA was prepared using High Pure RNA Isolation Kit (manufactured by Roche, Indianapolis, Ind., USA). For the procedures from the total RNA preparation to the reverse transcription, the reagents and tools used were RNase-free. Cells were prepared in a sub-confluent to confluent condition in a cell culture dish (Greiner bio-one, Monroe, N.C., USA). The medium was completely removed, 200 μL of PBS, and 400 μL of cell lysis solution, which was contained in High Pure RNA Isolation Kit, were added, and the entire dish was well covered by the cell lysis solution. When the viscosity of the cell lysis solution was decreased, the cell lysis solution was collected into a 1.5-mL sample tube. The collected sample was well suspended. A filter tube and a collection tube, which were contained in High Pure RNA Isolation Kit, were assembled, and the sample was pipetted into a buffer reservoir in the upper portion of the filter tube, and was centrifuged at 8,000×g for 15 seconds. The flowthrough liquid into the collection tube was discarded, and the filter tube and the collection tube were again assembled. Then, 90 μL of DNase incubation buffer per sample was pipetted into a sterile reaction tube, and 10 μL of DNase I was added into the tube and mixed. The mixture liquid was pipetted into the buffer reservoir in the upper portion of the filter tube, was added on the glass fiber fleece in the filter tube, and was incubated at room temperature for 15 minutes. Then, 500 μL of wash buffer I, which was contained in High Pure RNA Isolation Kit, was added to the buffer reservoir in the upper portion of the filter tube, and was centrifuged at 8,000×g for 15 seconds. The flowthrough liquid into the collection tube was discarded, and the filter tube and the collection tube were again assembled. Then, 500 μL of wash buffer II was added to the buffer reservoir in the upper portion of the filter tube, and centrifugation was performed at 8,000×g for 15 seconds. The liquid discharged to the collection tube was discarded, and the filter tube and the collection tube were again assembled. Then, 200 μL of wash buffer II was added to the buffer reservoir in the upper portion of the filter tube, and centrifugation was performed at 13,000×g for 2 minutes, after which a remaining wash buffer in the filter tube was removed. The collection tube was discarded, the filter tube was inserted into a sterile reaction tube, and 50 μL of elution buffer was added in the filter tube, and centrifugation was performed at 8,000×g for 1 minute. The eluate obtained by the procedures was taken as an RNA solution. The concentration of RNA in the solution was calculated based on the light absorbance at 260 nm with a NanoDrop 2000/2000c spectrophotometer (Thermo Scientific, Waltham, Mass., USA), for use in subsequent experiments.
# Then, 5 pmol of oligo(dT)20 primer was added to 1.0 μg of total RNA extracted from the cells, and sterile water was further added thereto so that the total liquid amount was 13 μL. Heat treatment was performed using a thermal cycler (Peltier Thermal Cycler PTC-200, MJ Research, Watertown, Mass., USA) at 65° C. for 5 minutes, and the resultant was immediately transferred in ice to quench it. During this treatment, the reverse transcriptase reaction program was advanced to the 42° C. stage and was temporarily stopped. A mixture solution obtained by mixing 4 μL of reverse transcriptase reaction buffer solution, 2 μL of 1 mM dNTPs (Amershan Pharmacia Biotech., Buckinghamshire, UK), and 0.5 μL of reverse transcriptase ReverTra Ace (TOYOBO, Osaka, Japan) per sample was added to and gently mixed with the sample on ice after 5 minutes. […]
Structure (SMILES),relative hSIRT1 promoter activity [1],EGFP fluorescence intensity (hSIRT1 promoter activity) [2],relative gene expression level of hSIRT1 [3]
O=C(O[C@H]1[C@@H]2OC(=O)c3cc(O)c(O)c(O)c3-c3c(cc(O)c(O)c3O)C(=O)OC[C@H]2OC(O)[C@@H]1OC(=O)c1cc(O)c(O)c(O)c1)c1cc(O)c(O)c(O)c1 (stereo partly shown) [tellimagrandin I],particularly strong hSIRT1 promoter enhancing activity,hSIRT1 expression effect on skin epidermis cells was seen,
C[C@@]12CCc3occc3[C@H]1CC[C@@]13C[C@@H](CC[C@H]12)[C@@](O)(CO)C3 [cafestol],particularly strong hSIRT1 promoter enhancing activity,,hSIRT1 transcription enhancing effect was observed
CC1(C)[C@@H](O[C@H]2O[C@H](C(=O)O)[C@@H](O)[C@H](O)[C@H]2O[C@@H]2O[C@H](C(=O)O)[C@@H](O)[C@H](O)[C@H]2O)CC[C@]2(C)[C@H]3C(=O)C=C4[C@@H]5C[C@@](C)(C(=O)O)CC[C@]5(C)CC[C@@]4(C)[C@]3(C)CC[C@@H]12 [glycyrrhizin],,,hSIRT1 transcription enhancing effect was observed
O=C(O[C@@H]1O[C@@H]2COC(=O)c3cc(O)c(O)c(O)c3-c3c(cc(O)c(O)c3O)C(=O)O[C@H]2[C@H](OC(=O)c2cc(O)c(O)c(O)c2)[C@H]1OC(=O)c1cc(O)c(O)c(O)c1)c1cc(O)c(O)c(O)c1 [eugeniin],particularly strong hSIRT1 promoter enhancing activity,,hSIRT1 transcription enhancing effect was observed
